Results on 11 molecules are retold here after BindingDB's records for doi:10.1016/j.bmc.2016.08.054 (National Institute of Public Health-National Institute of …, 2016).

Sequence of Aminopeptidase N (Sus scrofa) (P15145 whole entry, looked up): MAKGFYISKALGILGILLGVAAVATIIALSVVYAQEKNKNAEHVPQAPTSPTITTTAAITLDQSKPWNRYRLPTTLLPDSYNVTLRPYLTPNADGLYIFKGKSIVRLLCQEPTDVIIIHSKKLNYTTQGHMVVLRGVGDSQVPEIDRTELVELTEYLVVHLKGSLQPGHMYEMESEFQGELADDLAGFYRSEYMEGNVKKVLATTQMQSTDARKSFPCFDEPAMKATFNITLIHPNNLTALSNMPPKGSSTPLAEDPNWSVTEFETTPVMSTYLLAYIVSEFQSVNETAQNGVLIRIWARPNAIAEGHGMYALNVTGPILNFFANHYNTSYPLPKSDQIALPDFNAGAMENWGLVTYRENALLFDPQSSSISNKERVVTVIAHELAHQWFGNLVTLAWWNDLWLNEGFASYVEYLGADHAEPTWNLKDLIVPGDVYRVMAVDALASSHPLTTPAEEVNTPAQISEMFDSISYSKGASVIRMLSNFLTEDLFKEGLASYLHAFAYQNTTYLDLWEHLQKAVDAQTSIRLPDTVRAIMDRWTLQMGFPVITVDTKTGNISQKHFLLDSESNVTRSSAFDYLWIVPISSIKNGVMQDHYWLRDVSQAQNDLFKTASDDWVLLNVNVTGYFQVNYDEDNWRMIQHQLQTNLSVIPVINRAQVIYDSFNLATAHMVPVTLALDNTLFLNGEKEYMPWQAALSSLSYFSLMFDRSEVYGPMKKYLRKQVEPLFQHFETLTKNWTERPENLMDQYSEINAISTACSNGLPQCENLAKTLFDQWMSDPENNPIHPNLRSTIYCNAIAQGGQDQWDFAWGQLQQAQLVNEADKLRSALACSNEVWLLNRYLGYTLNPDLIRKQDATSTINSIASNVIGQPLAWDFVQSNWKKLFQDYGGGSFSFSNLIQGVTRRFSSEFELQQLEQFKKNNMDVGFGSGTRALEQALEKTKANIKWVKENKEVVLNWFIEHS

The first test concerns the target Aminopeptidase N (Sus scrofa) (UniProt P15145). Description: Inhibition of porcine kidney microsomal LAP using l-leucine-7-amido-4-methylcoumarin as substrate incubated for 10 hrs measured every 6 mins by fluorescence assay.
Take `CCOC(=O)C1(C(=O)OCC)Cc2cc(OCc3ccccc3)cc(OCc3ccccc3)c2C=N1`: the 50% inhibitory concentration (IC50) (usually the concentration at which inhibition is half-maximal) turned out to be 33.6 µM.

For the next test the target is unchanged. Description: Inhibition of porcine kidney microsomal LAP using l-leucine-7-amido-4-methylcoumarin as substrate incubated for 60 mins measured every 3 mins by fluorescence assay.
Consider `O=C(O)C1Cc2cc(O)c(Br)c(O)c2C=N1` (configuration not stated), for which the IC50 came to 76.8 µM.

In turn, `O=C(O)C1Cc2cc(O)c(O)c(I)c2C=N1` (configuration not stated) yielded an IC50 of 63.6 µM.

Turning to `O=C(O)C1Cc2cc(O)c(O)c(Br)c2C=N1` (configuration not stated), 68.3 µM corresponded to half-maximal inhibition (IC50).

Molecule `O=C(O)C1Cc2cc(O)c(I)cc2C=N1` (configuration not stated) registered an IC50 of 69.3 µM.

`O=C(O)C1CCc2cc(O)c(O)cc2C=N1` (configuration not stated) yielded an IC50 of 163 µM.

In turn, `O=C(O)C1Cc2c(O)c(O)cc(Br)c2C=N1` (configuration not stated) came in with an IC50 of 409 µM.

In the case of `CCOC(=O)C1(C(=O)OCC)Cc2cc(OCc3ccccc3)cc(OCc3ccccc3)c2C=N1`, it took 16.5 µM to reach half-maximal inhibition (IC50).

Regarding `O=C(O)C1Cc2cc(O)cc(O)c2C=N1` (configuration not stated), the IC50 was 379 µM.

On to `O=C(O)C1Cc2cc(O)c(O)c(O)c2C=N1` (configuration not stated), for which half-maximal inhibition (IC50) required 781 µM.

For `O=C(O)C1Cc2cc(O)c(O)cc2C=N1` (configuration not stated), the IC50 was determined as 111 µM.

The molecule `COc1cc2c(cc1OC)CCC(C(=O)OCc1ccccc1)(C(=O)OCc1ccccc1)N=C2` had an IC50 of 1050 µM.
